# Experimental data: publication PMC6236115, “The 9H-Fluoren Vinyl Ether Derivative SAM461 Inhibits Bacterial Luciferase Activity and Protects Artemia franciscana From Luminescent Vibriosis” (Frontiers in Cellular and Infection Microbiology, 2018)
# Molecular target: T1, Vibrio fischeri luciferase (VfLuc) (Aliivibrio fischeri, UniProt P19907)
# T1 construct: gene luxA; commercial Vibrio fischeri luciferase (Sigma-Aldrich L8507), with FMN reductases; with luciferase beta subunit (LuxB)
# T1 sequence (P19907 1-354): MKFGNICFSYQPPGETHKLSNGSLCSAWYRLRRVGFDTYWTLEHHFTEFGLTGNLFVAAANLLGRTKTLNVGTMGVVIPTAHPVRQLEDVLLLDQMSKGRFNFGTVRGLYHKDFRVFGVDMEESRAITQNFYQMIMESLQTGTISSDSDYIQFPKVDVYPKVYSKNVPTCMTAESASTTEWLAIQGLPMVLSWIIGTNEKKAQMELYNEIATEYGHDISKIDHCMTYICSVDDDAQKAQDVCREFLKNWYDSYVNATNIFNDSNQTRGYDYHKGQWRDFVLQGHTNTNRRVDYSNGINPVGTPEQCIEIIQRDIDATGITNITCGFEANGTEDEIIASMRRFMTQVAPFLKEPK
# T1 sequence (P19908 1-326 partner): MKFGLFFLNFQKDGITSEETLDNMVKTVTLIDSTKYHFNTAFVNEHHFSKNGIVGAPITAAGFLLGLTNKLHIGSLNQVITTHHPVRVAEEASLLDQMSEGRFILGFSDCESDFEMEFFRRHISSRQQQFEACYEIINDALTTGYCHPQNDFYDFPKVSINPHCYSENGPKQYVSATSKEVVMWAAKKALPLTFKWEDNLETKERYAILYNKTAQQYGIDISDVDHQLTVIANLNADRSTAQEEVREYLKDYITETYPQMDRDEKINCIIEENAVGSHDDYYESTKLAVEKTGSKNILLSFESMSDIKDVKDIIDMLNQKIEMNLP
# Assay: luminescence enzyme assay, coupled with FMN reductase, 12-point titration
# Type: biochemical
compound,measurement,value
"COC(=O)/C=C/OC1c2ccccc2-c2ccccc21 [SAM461, (E)-Methyl 3-((9H-fluoren-9-yl)oxy)acrylate]",IC50,191 µM
